We go through 13 molecules from patent publication US20260070945A1, “MACROCYCLIC IMMUNOMODULATORS” (Bristol-Myers Squibb Company, priority 2022, published 2026).

What is called IC50 is the concentration that gives 50% inhibition.

Where a SMILES comes first, the peptide text is derived from it. Bridges are numbered along the chain shown (N, C = ends). [ ]: non-standard residue; d: D form. The star is where a group is joined. ξ: configuration not given here. Phe(3-CF3) = N[C@@H](Cc1cccc(C(F)(F)F)c1)C(=O)O; Phe(4-COOH) = N[C@@H](Cc1ccc(C(=O)O)cc1)C(=O)O; Bip = N[C@@H](Cc1ccc(-c2ccccc2)cc1)C(=O)O; Morpholine(3S-CO) = O=C(O)[C@@H]1COCCN1; Phe(3-F) = N[C@@H](Cc1cccc(F)c1)C(=O)O; Phe(3-Me) = Cc1cccc(C[C@H](N)C(=O)O)c1; NH(CH2)12COOH = O=C(O)CCCCCCCCCCCCN*; Val(3-OH) = CC(C)(O)[C@H](N)C(=O)O; hArg = N=C(N)NCCCC[C@H](N)C(=O)O; 4Pal = N[C@@H](Cc1ccncc1)C(=O)O; Cha = N[C@@H](CC1CCCCC1)C(=O)O; Ile(3ξ) = CCC(C)[C@H](N)C(=O)O; Thr(3ξ) = CC(O)[C@H](N)C(=O)O; Ala(CN) = N#CC[C@H](N)C(=O)O; Carboxymethyl = O=C(O)C*; NMeA = CN[C@@H](C)C(=O)O; Orn = NCCC[C@H](N)C(=O)O; Aun = NCCCCCCCCCCC(=O)O; Dab = NCC[C@H](N)C(=O)O; Dap = NC[C@H](N)C(=O)O; AEEA = NCCOCCOCC(=O)O; Sar = CNCC(=O)O

In this assay the target is T1, PD-1/PD-L1 interaction (PE-labeled human PD-L1-Ig binding to Jurkat cell line over-expressing human PD-1) (Homo sapiens, UniProt Q15116).
T1 construct: expressed in transfected cells; host or cells: Jurkat
T1 sequence (Q15116 25-288): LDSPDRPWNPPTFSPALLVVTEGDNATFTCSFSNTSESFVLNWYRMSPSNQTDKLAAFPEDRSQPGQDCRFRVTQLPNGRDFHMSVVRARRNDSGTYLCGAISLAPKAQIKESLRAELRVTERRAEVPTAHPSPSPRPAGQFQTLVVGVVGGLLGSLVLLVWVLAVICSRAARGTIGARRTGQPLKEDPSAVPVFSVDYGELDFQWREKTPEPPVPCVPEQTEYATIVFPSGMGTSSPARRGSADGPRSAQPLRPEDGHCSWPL
The experiment in a line: Jurkat-PD-1 Cell Binding High-Content Screening Assay (CBA). Particulars: Jurkat-hPD-1 cells, PE-labeled PD-L1-Ig 20 nM final; read-out: Jurkat HPD1 PDL1 IC50. In a few lines: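 In this imaging assay, cells in 10% FCS medium see compound for 2 h at 37 °C and then labeled ligand at 20 nM final for 1 h. Paraformaldehyde fixation, Hoechst 33342 staining and dPBS washes precede image capture.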
On to `Cc1cccc(C[C@@H]2NC(=O)[C@H](CC(=O)O)NC(=O)[C@H](Cc3ccc(OCC(=O)O)cc3)NC(=O)[C@H](C(C)O)NC(=O)CSC[C@@H](C(=O)N(C)CC(=O)NCCCCCCCCCCC(=O)O)NC(=O)[C@H](CCC(=O)O)NC(=O)[C@H](C(C)C)NC(=O)[C@H](CC3CCCCC3)NC(=O)[C@H](CCN)NC(=O)[C@@H](CC(C)C)NC(=O)[C@H](C)N(C)C(=O)[C@H](C(C)C)NC(=O)[C@H](Cc3ccc(-c4ccccc4)cc3)NC(=O)[C@H](Cc3ccc(O)cc3)NC2=O)c1` (stereo partly drawn) [Example 2263] ({CH2CO}-[Thr(3ξ)]Y(Carboxymethyl)D[Phe(3-Me)]Y[Bip]V[NMeA][dL][Dab][Cha]VEC[Sar][Aun]-OH; thioether N-14), for which the IC50 stood at 334 nM.
Regarding `CC(C)C[C@@H]1NC(=O)[C@H](Cc2c[nH]c3ccccc23)NC(=O)[C@H](CC(=O)O)NC(=O)[C@H](Cc2ccc(C(=O)O)cc2)NC(=O)[C@H](Cc2ccc(OCC(=O)O)cc2)NC(=O)CSC[C@@H](C(=O)NCC(=O)N[C@@H](CCN)C(=O)NCCCCCCCCCCC(=O)O)NC(=O)[C@H](CO)NC(=O)[C@H](C(C)C)NC(=O)[C@H](CC2CCCCC2)NC(=O)[C@H](CCN)NC(=O)[C@H](CC(C)C)NC(=O)[C@H](C)N(C)C(=O)[C@H](C(C)C)NC(=O)[C@H](Cc2ccc(-c3ccccc3)cc2)NC1=O` [Example 1037] ({CH2CO}-Y(Carboxymethyl)[Phe(4-COOH)]DWL[Bip]V[NMeA]L[Dab][Cha]VSCG[Dab][Aun]-OH; thioether N-14), the IC50 came out at 13.6 nM.
On to `CCC(C)[C@@H]1NC(=O)[C@H](Cc2ccc(-c3ccccc3)cc2)NC(=O)[C@H](CC(C)C)NC(=O)[C@H](Cc2c[nH]c3ccccc23)NC(=O)[C@H](CC(=O)O)NC(=O)[C@H](Cc2ccc(O)cc2)NC(=O)[C@H](Cc2ccccc2)NC(=O)CSC[C@@H](C(=O)N[C@@H](CN)C(=O)NCCOCCOCC(=O)NCCCCCCCCCCC(=O)O)NC(=O)[C@H](CO)NC(=O)[C@H](C(C)C)NC(=O)[C@H](CC2CCCCC2)NC(=O)[C@H](CCN)NC(=O)[C@@H](CC(C)C)NC(=O)[C@H](C)N(C)C1=O` (stereo partly drawn) [Example 2055] ({CH2CO}-FYDWL[Bip][Ile(3ξ)][NMeA][dL][Dab][Cha]VSC[Dap][AEEA][Aun]-OH; thioether N-14), for which the half-maximal inhibitory concentration (IC50) stood at 101 nM.
On to `Cc1cccc(C[C@@H]2NC(=O)[C@H](CC(=O)O)NC(=O)[C@H](Cc3ccc(OCC(=O)O)cc3)NC(=O)[C@H]([C@@H](C)O)NC(=O)CSC[C@@H](C(=O)N[C@@H](CCN)C(=O)NCCOCCOCC(=O)NCCCCCCCCCCC(=O)O)NC(=O)[C@H](CCC(=O)O)NC(=O)[C@H](C(C)(C)O)NC(=O)[C@H](CC3CCCCC3)NC(=O)[C@H](CCN)NC(=O)[C@@H](CC(C)C)NC(=O)[C@H](C)N(C)C(=O)[C@H](Cc3ccc(OCC(=O)O)cc3)NC(=O)[C@H](Cc3ccc(-c4ccccc4)cc3)NC(=O)[C@H](Cc3cccc(F)c3)NC2=O)c1` [Example 1424] ({CH2CO}-TY(Carboxymethyl)D[Phe(3-Me)][Phe(3-F)][Bip]Y(Carboxymethyl)[NMeA][dL][Dab][Cha][Val(3-OH)]EC[Dab][AEEA][Aun]-OH; thioether N-14), for which the IC50 worked out at 27.7 nM.
As to `CC(C)C[C@H]1NC(=O)[C@H](C)N(C)C(=O)[C@H](C(C)C)NC(=O)[C@H](Cc2ccc(-c3ccccc3)cc2)NC(=O)[C@H](C(C)C)NC(=O)[C@H](Cc2c[nH]c3ccccc23)NC(=O)[C@H](CC(=O)O)NC(=O)[C@H](Cc2ccc(OCC(=O)O)cc2)NC(=O)[C@H](CCCCNC(=N)N)NC(=O)CSC[C@@H](C(=O)N[C@@H](CCN)C(=O)NCCCCCCCCCCC(=O)O)NC(=O)[C@H](CO)NC(=O)[C@H](C(C)C)NC(=O)[C@H](CC2CCCCC2)NC(=O)[C@H](CCN)NC1=O` [Example 2191] ({CH2CO}-[hArg]Y(Carboxymethyl)DWV[Bip]V[NMeA][dL][Dab][Cha]VSC[Dab][Aun]-OH; thioether N-14), the IC50 came out at 13.4 nM.
`CCC(C)[C@@H]1NC(=O)[C@H](Cc2ccc(-c3ccccc3)cc2)NC(=O)[C@H](CC(C)C)NC(=O)[C@H](Cc2c[nH]c3ccccc23)NC(=O)[C@H](CC(=O)O)NC(=O)[C@H](Cc2ccc(O)cc2)NC(=O)[C@H](CC#N)NC(=O)CSC[C@@H](C(=O)N[C@@H](CN)C(=O)NCCOCCOCC(=O)NCCCCCCCCCCC(=O)O)NC(=O)[C@H](CO)NC(=O)[C@H](C(C)C)NC(=O)[C@H](CC2CCCCC2)NC(=O)[C@H](CCN)NC(=O)[C@@H](CC(C)C)NC(=O)[C@H](C)N(C)C1=O` (stereo partly drawn) [Example 2054] ({CH2CO}-[Ala(CN)]YDWL[Bip][Ile(3ξ)][NMeA][dL][Dab][Cha]VSC[Dap][AEEA][Aun]-OH; thioether N-14): the IC50 worked out at 14.3 nM.
For `CC(=O)NCCCC[C@@H]1NC(=O)[C@H](Cc2ccc(-c3ccccc3)cc2)NC(=O)[C@H](C(C)C)NC(=O)[C@H](Cc2c[nH]c3ccccc23)NC(=O)[C@H](CC(=O)O)NC(=O)[C@H](Cc2ccc(OCC(=O)O)cc2)NC(=O)[C@H](Cc2ccc(OCC(=O)O)cc2)NC(=O)CSC[C@@H](C(=O)NCCOCCOCC(=O)NCCCCCCCCCCC(=O)O)NC(=O)[C@H](C(C)O)NC(=O)[C@H](C(C)C)NC(=O)[C@H](CC2CCCCC2)NC(=O)[C@H](CCN)NC(=O)[C@@H](CC(C)C)NC(=O)[C@H](C)N(C)C1=O` (stereo partly drawn) [Example 2321] ({CH2CO}-Y(Carboxymethyl)Y(Carboxymethyl)DWV[Bip]K(Ac)[NMeA][dL][Dab][Cha]V[Thr(3ξ)]C[AEEA][Aun]-OH; thioether N-14), the IC50 worked out at 5.8 nM.
With `CC(C)C[C@@H]1NC(=O)[C@H](Cc2c[nH]c3ccccc23)NC(=O)[C@H](CC(=O)O)NC(=O)[C@H](Cc2ccncc2)NC(=O)[C@H](Cc2ccc(OCC(=O)O)cc2)NC(=O)CSC[C@@H](C(=O)N2CCOC[C@H]2C(=O)NCCCCCCCCCCC(=O)O)NC(=O)[C@H](C(C)O)NC(=O)[C@H](C(C)C)NC(=O)[C@H](CC2CCCCC2)NC(=O)[C@H](CCN)NC(=O)[C@@H](CC(C)C)NC(=O)[C@H](C)N(C)C(=O)[C@H](C(C)C)NC(=O)[C@H](Cc2ccc(-c3ccccc3)cc2)NC1=O` (stereo partly drawn) [Example 1222] ({CH2CO}-Y(Carboxymethyl)[4Pal]DWL[Bip]V[NMeA][dL][Dab][Cha]V[Thr(3ξ)]C[Morpholine(3S-CO)][Aun]-OH; thioether N-14) the figure was 591 nM.
Regarding `Cc1cccc(C[C@@H]2NC(=O)[C@H](CC(=O)O)NC(=O)[C@H](Cc3ccc(OCC(=O)O)cc3)NC(=O)[C@H](CCN)NC(=O)CSC[C@@H](C(=O)N[C@@H](CCN)C(=O)NCCCCCCCCCCC(=O)O)NC(=O)[C@H](CO)NC(=O)[C@H](C(C)O)NC(=O)[C@H](CC3CCCCC3)NC(=O)[C@H](CCN)NC(=O)[C@@H](CC(C)C)NC(=O)[C@H](C)N(C)C(=O)[C@H](Cc3ccc(OCC(=O)O)cc3)NC(=O)[C@H](Cc3ccc(-c4ccccc4)cc3)NC(=O)[C@H](Cc3ccc(OCC(=O)O)cc3)NC2=O)c1` (stereo partly drawn) [Example 2425] ({CH2CO}-[Dab]Y(Carboxymethyl)D[Phe(3-Me)]Y(Carboxymethyl)[Bip]Y(Carboxymethyl)[NMeA][dL][Dab][Cha][Thr(3ξ)]SC[Dab][Aun]-OH; thioether N-14), the concentration for half-maximal inhibition (IC50) came out at 15.6 nM.
For the molecule `Cc1cccc(C[C@@H]2NC(=O)[C@H](CC(=O)O)NC(=O)[C@H](Cc3ccc(OCC(=O)O)cc3)NC(=O)[C@H](Cc3ccc(OCC(=O)O)cc3)NC(=O)CSC[C@@H](C(=O)N[C@@H](CCN)C(=O)NCCCCCCCCCCC(=O)O)NC(=O)[C@H](CCCN)NC(=O)[C@H](C(C)C)NC(=O)[C@H](CC3CCCCC3)NC(=O)[C@H](CCN)NC(=O)[C@@H](CC(C)C)NC(=O)[C@H](C)N(C)C(=O)[C@H](Cc3ccc(O)cc3)NC(=O)[C@H](Cc3ccc(-c4ccccc4)cc3)NC(=O)[C@H](C(C)C)NC2=O)c1` [Example 1254] ({CH2CO}-Y(Carboxymethyl)Y(Carboxymethyl)D[Phe(3-Me)]V[Bip]Y[NMeA][dL][Dab][Cha]V[Orn]C[Dab][Aun]-OH; thioether N-14), the IC50 amounted to 12.5 nM.
Consider `CC(=O)NCCCC[C@@H]1NC(=O)[C@H](C(C)C)NC(=O)[C@H](CC2CCCCC2)NC(=O)[C@H](CCN)NC(=O)[C@@H](CC(C)C)NC(=O)[C@H](C)N(C)C(=O)[C@H](Cc2ccc(O)cc2)NC(=O)[C@H](Cc2ccc(-c3ccccc3)cc2)NC(=O)[C@H](C(C)C)NC(=O)[C@H](Cc2cccc(C)c2)NC(=O)[C@H](CC(=O)O)NC(=O)[C@H](Cc2ccc(OCC(=O)O)cc2)NC(=O)[C@H](Cc2ccc(O)cc2)NC(=O)CSC[C@@H](C(=O)N(C)CC(=O)NCCCCCCCCCCC(=O)O)NC1=O` [Example 2275] ({CH2CO}-YY(Carboxymethyl)D[Phe(3-Me)]V[Bip]Y[NMeA][dL][Dab][Cha]VK(Ac)C[Sar][Aun]-OH; thioether N-14), for which the IC50 is 282 nM.
For the molecule `CC(C)C[C@H]1NC(=O)[C@H](C)N(C)C(=O)[C@H](CCC(N)=O)NC(=O)[C@H](Cc2ccc(-c3ccccc3)cc2)NC(=O)[C@H](Cc2ccc(C(=O)O)cc2)NC(=O)[C@H](Cc2cccc(C(F)(F)F)c2)NC(=O)[C@H](CC(=O)O)NC(=O)[C@H](Cc2ccc(OCC(=O)O)cc2)NC(=O)[C@H](Cc2ccc(C(=O)O)cc2)NC(=O)CSC[C@@H](C(=O)N[C@@H](CCN)C(=O)NCCCCCCCCCCCCC(=O)O)NC(=O)[C@H](CC(=O)O)NC(=O)[C@H](C(C)(C)O)NC(=O)[C@H](CC2CCCCC2)NC(=O)[C@H](CCN)NC1=O` [Example 1142] ({CH2CO}-[Phe(4-COOH)]Y(Carboxymethyl)D[Phe(3-CF3)][Phe(4-COOH)][Bip]Q[NMeA][dL][Dab][Cha][Val(3-OH)]DC[Dab]-{NH(CH2)12COOH}; thioether N-14), the IC50 came out at 24.8 nM.
As to `CC(=O)NCCCC[C@@H]1NC(=O)[C@H](Cc2ccc(-c3ccccc3)cc2)NC(=O)[C@H](Cc2ccc(O)cc2)NC(=O)[C@H](Cc2cccc(C)c2)NC(=O)[C@H](CC(=O)O)NC(=O)[C@H](Cc2ccc(OCC(=O)O)cc2)NC(=O)[C@H](Cc2ccc(OCC(=O)O)cc2)NC(=O)CSC[C@@H](C(=O)NCCCCCCCCCCC(=O)O)NC(=O)[C@H](C(C)O)NC(=O)[C@H](C(C)C)NC(=O)[C@H](CC2CCCCC2)NC(=O)[C@H](CCN)NC(=O)[C@@H](CC(C)C)NC(=O)[C@H](C)N(C)C1=O` (stereo partly drawn) [Example 2379] ({CH2CO}-Y(Carboxymethyl)Y(Carboxymethyl)D[Phe(3-Me)]Y[Bip]K(Ac)[NMeA][dL][Dab][Cha]V[Thr(3ξ)]C[Aun]-OH; thioether N-14), the IC50 is 38.9 nM.
